From patent US20240246941A1, “SUBSTITUTED 4-(3-AMINOPROP-1-YL)AMINOQUINOLINE ANALOGS AS MODULATORS OF MELANOMA-ASSOCIATED ANTIGEN 11 UBIQUITIN LIGASE” (ST. JUDE CHILDREN'S RESEARCH HOSPITAL, INC., priority 2020, published 2024)

Target: interaction between GST-MAGEA11 MHD and FAM-PCF11_4 peptide (MAGE-A11:PCF11) (Homo sapiens (Human), UniProt P43364)
Assay: TR-FRET dose response competition assay for disruption of MAGE-A11:PCF11 binding
Settings: Dose response TR-FRET screening of nine scaffold groups against MAGE-A11:PCF11; read-out: consensus IC50
Source text: TR-FRET Assays and High-throughput Screen. Terbium-anti-GST antibody, 1 M Tris pH 7.5 1 M MgCl2 and 1 M DTT were purchased from Invitrogen (Carlsbad, CA), BSA was purchased from Sigma (St. Louis, MO). Dimethyl sulfoxide (DMSO) was purchased from Fisher Scientific (Pittsburgh, PA). Black 384-well low volume plates and 384-well polypropylene compound plates were purchased from Corning Incorporated (Tewksbury, MA). The St. Jude FDA drug and Bioactive library (11,293 chemicals), Drug-like library (10,073 chemicals) and Lead-like library (10,041 chemicals) were custom assembled and purchased from commercial sources including Sigma, Microsource (Gaylordsville, CT), selleckchem (Houston, TX), ChemDiv (San Diego, CA), ChemBridge (San Diego, CA), Enamine (Monmouth Jct., NJ), and Life Chemicals (Niagara-on-the-Lake, ON, Canada). They were arrayed (10 mM in DMSO) in 384-well polypropylene compound plates with columns 1, 2, 13 and 14 empty which were reserved for controls.
The TR-FRET assay buffer with a formula of 50 mM Tris pH 7.5, 20 mM MgCl2, 0.1 mg/ml BSA and 1 mM DTT was freshly prepared before each experiment. All TR-FRET assays were performed in black 384-well plates with 20 μl/well assay volume in the TR-FRET assay buffer at room temperature (approximately 25° C.). All peptides or compounds were solubilized in DMSO. To test the competitive activity of peptides or compounds against the interaction between GST-MAGEA11 MHD and FAM-PCF11_4 peptide, 10 μl/well peptide or compound at specified concentration was dispensed into a black 384-well low volume plate, followed by 5 μl/well FAM-PCF11_4 (800 nM), 5 μl/well Tb-anti-GST (20 nM) and GST-MAGEA11 MHD (20 nM). The assay components in each well was then mixed by shaking the plate on an IKA MTS 2/4 digital microtiter plate shaker (IKA Works; Wilmington, NC, USA) at 900 RPM for 1 minute. The plate was further centrifuged in an Eppendorf 5810 centrifuge with an A-4-62 swing-bucket rotor (Eppendorf AG, Hamburg, Germany) at 201 g (1000 rpm) for 30 seconds. The plate was then incubated for 90 min with a lid to avoid light exposure to the assay components. After incubation, the fluorescent emission signals at 520 nm and 490 nm channels of individual wells were measured with a PHERAstar FS plate reader (BMG Labtech; Durham, NC, USA) by using a 340 nm excitation filter, 100 μs delay time, and 200 μs integration time. The TR-FRET fluorescence emission ratio (TR-FRET signal) for each well was presented as 10 000×520 nm/490 nm, which was used directly for curve fitting, or further converted to % Inhibition based on the respective positive and negative controls. The graphic software GraphPad Prism 4.81 (GraphPad Software; La Jolla, CA, USA) was used to generate curves and derive IC50 values of tested peptides or compounds, if applicable.
TR-FRET inhibitory activity characterization of a panel of PCF11 peptides against the interaction between GST-MAGEA11 MHD and FAM-PCF11_4 was performed as follows. In a 20 μl/well assay volume, dilutions of PCF11_1 to PCF11_8 peptides (concentrations ranged from 3.1 nM to 100 μM for peptides PCF11_4, PCF11_5, PCF11_6 and PCF11_8 in a 1-to-2 dilution pattern for 16 concentration levels, and ranged from 48.9 nM to 100 μM for peptides of PCF11_1, PCF11_2, PCF11_3 and PCF11_7 in a 1-to-2 dilution pattern for 12 concentration levels), 200 nM FAM-PCF11_4, 5 nM Tb-anti-GST and 5 nM GST-MAGEA11 were mixed together and incubated for 90 min before the TR-FRET signal for each well was measured. The final DMSO concentration was 1.1% (v/v). […] The signal of each peptide-treated well (Signalpeptide) was normalized to the positive and negative controls to derive % inhibition of the peptide at a specific concentration with equation 1. Where applicable, the % Inhibition data were fit into a Sigmoidal dose response equation to derive IC50 values.
TR-FRET screen for identifying MAGEA11 small molecule inhibitors was performed as follows.

interaction between GST-MAGEA11 MHD and FAM-PCF11_4 peptide (MAGE-A11:PCF11), sequence (P43364 218-429): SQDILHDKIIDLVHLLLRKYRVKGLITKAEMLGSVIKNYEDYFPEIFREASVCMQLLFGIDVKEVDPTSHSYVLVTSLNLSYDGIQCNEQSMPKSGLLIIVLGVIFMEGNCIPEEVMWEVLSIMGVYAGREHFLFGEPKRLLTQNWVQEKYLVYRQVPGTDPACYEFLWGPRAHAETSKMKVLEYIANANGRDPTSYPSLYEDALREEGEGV

Row | SMILES | IC50 [µM]
1 | COCCn1c(-c2ccc(C)cc2)nc2c1c(=O)[nH]c(=O)n2CC(C)C [SJ000421396-1] | 69.9
2 | CC(=O)N(C1=C(Cl)C(=O)c2ccccc2C1=O)c1ccc(Br)cc1 [SJ000299699-2] | 69.9
3 | Cn1c(=O)c2nc(-c3ccccc3)[nH]c2n(C)c1=O [SJ000288094-2] | 69.9
4 | CCCN1C(=O)c2ccccc2NC1c1ccc(OC)c(OC)c1 (centres unmarked) [SJ000026517-1] | 69.9
5 | O=S(=O)(c1ccc(Cl)cc1)c1nc(-c2ccccc2Br)oc1N1CCOCC1 [SJ000184129-1] | 69.9
6 | Cc1ccccc1-c1nc(S(=O)(=O)c2ccc(F)cc2)c(N2CC(C)OC(C)C2)o1 (centres unmarked) [SJ000329031-1] | 69.9
7 | COc1ccc(-c2cc3ncn(CC(=O)NCc4ccccc4C)c(=O)c3s2)cc1 [SJ000455215-1] | 69.9
8 | O=C1c2ccccc2NC(c2ccc(F)cc2F)N1CCCN1CCOCC1 (centres unmarked) [SJ000795275-1] | 67.8
9 | CCCn1c(=O)c2nc(-c3ccc(OCC(=O)NCCN)cc3)[nH]c2n(CCC)c1=O [SJ000288288-2] | 69.9
10 | O=C1c2ccccc2NC(c2ccc(F)c(Br)c2)N1CCCN1CCOCC1 (centres unmarked) [SJ000803764-1] | 68
11 | COc1ccccc1Oc1ccc2c(NCCCNCc3cccc(OC)c3O)ccnc2c1 [SJ000311211-1] | 69.9
12 | COc1ccc(CNCCCNc2ccnc3cc(Cl)ccc23)cc1 [SJ000523059-1] | 69.9
13 | Cc1cc(-c2nc3c(c(=O)[nH]c(=O)n3C)n2C)ccc1Cl [SJ000517919-1] | 69.9
14 | COc1ccc(F)cc1CNCCCNc1ccnc2cc(CC3CCCCC3)ccc12 [SJ000311253-1] | 26.3
15 | CCc1ccc(CNCCCNc2ccnc3cc(Cl)ccc23)cc1 [SJ000521039-1] | 69.9
16 | Cc1ccc(S(=O)(=O)c2nc(-c3ccc(Br)cc3)oc2N2CCOCC2)cc1 [SJ000230855-1] | 69.9
17 | Cc1ccc(-c2nc(S(=O)(=O)c3ccc(Cl)cc3)c(N3CCOCC3)o2)cc1 [SJ000140851-1] | 69.9
18 | NC1=C(N2CCCCC2)C(=O)c2ccccc2C1=O [SJ000294373-2] | 20.1
19 | COc1cccc(CNCCCNc2ccnc3cc(-c4ccc(C(F)(F)F)cc4)ccc23)c1O [SJ000311279-1] | 9.52
20 | c1ccc(CCc2ccc3c(NCCCNCc4cccc5c4OCO5)ccnc3c2)cc1 [SJ000311257-1] | 62.3

Row | SMILES | IC50 [µM]
21 | CCCCn1c(=O)[nH]c(=O)c2c1nc(-c1ccc(OCC(C)C)c(OCC)c1)n2CC [SJ000378903-1] | 69.9
22 | COc1ccc(F)cc1CNCCCNc1ccnc2cc(Cl)ccc12 [SJ000000500-3] | 69.9
23 | CC(C)(C)C(=O)CSc1nc2cc(-c3ccccc3)sc2c(=O)n1CCN1CCOCC1 [SJ000451590-1] | 69.9
24 | NC1=C(Nc2ccc(Br)cc2)C(=O)c2ccccc2C1=O [SJ000032713-1] | 69.9
25 | CCOc1cc(C2Nc3ccccc3C(=O)N2Cc2ccccc2)ccc1O (centres unmarked) [SJ000288432-1] | 69.9
26 | CC(C)C(NC1=C(Cl)C(=O)c2ccccc2C1=O)C(=O)O (centres unmarked) [SJ000244609-2] | 587
27 | CCCN1C(=O)c2ccccc2NC1c1ccc(OC)cc1 (centres unmarked) [SJ000026518-2] | 69.9
28 | COc1ccc(C2Nc3ccccc3C(=O)N2Cc2ccccc2)cc1 (centres unmarked) [SJ000551209-1] | 69.9
29 | CCN1CCN(Cc2ccc3c(c2)c2ccccc2n3CC)CC1 [SJ000142875-1] | 69.9
30 | Cc1ccc(Nc2nc(N)c3ccccc3n2)cc1C [SJ000202381-1] | 69.9
31 | COc1ccc(C2Nc3ccccc3C(=O)N2Cc2ccccc2)cc1CSc1ccccn1 (centres unmarked) [SJ000111312-2] | 69.9
32 | CC(C)(C)c1ccc(-c2ccc3c(NCCCNCc4cccc5c4OCO5)ccnc3c2)cc1 [SJ000311288-1] | 6.87
33 | Cc1ccc(S(=O)(=O)c2nc(-c3ccccc3Br)oc2N2CCOCC2)cc1 [SJ000185415-1] | 69.9
34 | COc1ccc(Cl)cc1Nc1nc(N)c2ccccc2n1 [SJ000200999-1] | 69.9
35 | Cc1ccc(-c2nc3c(c(=O)[nH]c(=O)n3CC(C)C)n2CC(C)C)cc1[N+](=O)[O-] [SJ000379015-1] | 69.9
36 | COc1ccc(O)c(C(C)NCCCNc2ccnc3cc(Cl)ccc23)c1 (centres unmarked) [SJ000311188-1] | 69.9
37 | CCCN1C(=O)c2ccccc2NC1c1ccc(Cl)cc1Cl (centres unmarked) [SJ000288424-2] | 69.9
38 | FC(F)(F)Oc1ccc(CNCCCNc2ccnc3cc(Cl)ccc23)cc1 [SJ000521025-1] | 69.9
39 | Cc1ccc(-c2nc(C#N)c(N3CC(C)OC(C)C3)o2)cc1 (centres unmarked) [SJ000478358-1] | 69.9

Same assay, conditions: Table 5, dose response TR-FRET screening of 59 quinoline compounds against MAGE-A11:PCF11; read-out: TR-FRET IC50

Row | SMILES | IC50 [µM]
40 | c1coc(CNCCCNc2ccnc3cc(-c4cccc5ccccc45)ccc23)c1 [SJ000311274-1] | > 70
41 | FC(F)(F)c1ccc(-c2ccc3c(NCCCNCc4ccco4)ccnc3c2)cc1 [SJ000311278-1] | 22.7

Same assay, conditions: Table 8, representative compounds; read-out: TR-FRET IC50

Row | SMILES | IC50 [µM]
42 | Fc1ccc(-c2ccc3c(NCCCNCc4cccc5c4OCO5)ccnc3c2)cc1 [SJ000311240] | 25
43 | c1cc(CNCCCNc2ccnc3cc(-c4ccc5c(c4)OCO5)ccc23)c2c(c1)OCO2 [SJ000311292] | 30.5
44 | COc1ccc(C(F)(F)F)cc1CNCCCNc1ccnc2cc(C(F)(F)F)ccc12 [SJ000521064] | 69.1
45 | Cc1cc(C)c(CNCCCNc2ccnc3cc(Cl)ccc23)c(C)c1 [SJ000520911] | 68.1
46 | FC(F)(F)c1cccc(Cc2ccc3c(NCCCNCc4cccc5c4OCO5)ccnc3c2)c1 [SJ000311300] | 12.8
47 | FC(F)(F)Oc1cccc(CNCCCNc2ccnc3cc(C(F)(F)F)ccc23)c1 [SJ000521045] | 69.9
48 | COc1ccccc1Oc1ccc2c(NCCCNCc3cccc4c3OCO4)ccnc2c1 [SJ000311212] | 69.9
49 | COc1ccc(F)cc1CNCCCNc1ccnc2cc(-c3ccc(F)cc3)ccc12 [SJ000311241] | 38.9
50 | Nc1ccccc1CNCCCNc1ccnc2cc(Cl)ccc12 [SJ000523055] | 69.9
51 | CC[C@@]1(O)C(=O)OCc2c1cc1n(c2=O)Cc2cc3ccccc3nc2-1 [SJ000285410] | > 55.2
52 | COc1ccc(OC)c2c(O)cc(C)nc12 [SJ000284975] | > 69.9

Target: MAGE-A11:PCF11 (Homo sapiens (Human), UniProt P43364)
Sequence (P43364 218-429): as above
Assay: TR-FRET single point screening at 15 μM
Type: binding
Parameters: unit not given here
Settings: single point TR-FRET screening at 15 μM against MAGE-A11:PCF11
Method in brief: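 Single-point screen at 15 μM (0.25% DMSO) measuring disruption of GST-MAGEA11 (5 nM) binding to FAM-PCF11_4 peptide (200 nM) detected by Tb-anti-GST (5 nM). Buffer 50 mM Tris pH 7.5, 20 mM MgCl2, 0.1 mg/ml BSA, 1 mM DTT; 90 min at ~25 °C; 520/490 nm ratio converted to % inhibition versus controls.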

Row | SMILES | TR-FRET signal
53 | CCc1ccc2ncc(S(=O)(=O)c3ccc(C)cc3)c(N3CCN(CC)CC3)c2c1 [SJ000083962] | 2.377
54 | Cc1ccc2ncc(S(=O)(=O)c3ccccc3)c(N3CCN(c4ccccc4F)CC3)c2c1 [SJ000315092] | −33.48

Same assay, conditions: single point TR-FRET screening of quinoline compounds against MAGE-A11:PCF11; 15 μM

Row | SMILES | TR-FRET signal
55 | Clc1ccc2c(NCCCN(Cc3ccccc3)Cc3ccc[nH]3)ccnc2c1 [SJ000522717] | 20.46
56 | CCCN(CCCNc1ccnc2cc(Cl)ccc12)CCC(C)(C)C [SJ000357570] | 12.11
